Test results from ChEMBL document CHEMBL1201862, “PubChem BioAssay data set” (2004).
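Briefly, cells in 96-well plates were exposed to five compound concentrations for 48 h, and endpoints were estimated by linear interpolation. The concentration for 50% growth inhibition is given as GI50.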 The source made the active and inactive calls. Rule as the data show it: active = GI50 up to about 1.1 µM and inactive = higher.

Experiments:
Test in all cases: DTP human tumour cell line panel, 48 h
[1] = tested on: M14
[2] = tested on: A549
[3] = tested on: SNB-19
[4] = tested on: HCT-15
[5] = tested on: NCI/ADR-RES
[6] = tested on: Malme-3M
[7] = tested on: MDA-MB-435
[8] = tested on: U-251
[9] = tested on: HCC 2998
[10] = tested on: SK-OV-3
[11] = tested on: NCI-H226
[12] = tested on: SR
[13] = tested on: SW-620
[14] = tested on: EKVX
[15] = tested on: OVCAR-3
[16] = tested on: HL-60
[17] = tested on: A498
[18] = tested on: RXF 393
[19] = tested on: OVCAR-8
[20] = tested on: LOX IMVI
[21] = tested on: COLO 205
[22] = tested on: UACC-257
[23] = tested on: K562
[24] = tested on: MCF7
[25] = tested on: TK-10
[26] = tested on: SK-MEL-28
[27] = tested on: SK-MEL-5
[28] = tested on: ACHN
[29] = tested on: SNB-75
[30] = tested on: HOP-62
[31] = tested on: OVCAR-4
[32] = tested on: MOLT-4
[33] = tested on: DU-145
[34] = tested on: NCI-H23
[35] = tested on: HT-29
[36] = tested on: T47D
[37] = tested on: CCRF-CEM
[38] = tested on: SF-268
[39] = tested on: MDA-N
[40] = tested on: HOP-92
[41] = tested on: SK-MEL-2
[42] = tested on: 786-0
[43] = tested on: IGROV-1
[44] = tested on: KM12
[45] = tested on: NCI-H460
[46] = tested on: HCT-116
[47] = tested on: MDA-MB-231
[48] = tested on: UACC-62
[49] = tested on: SF-539
[50] = tested on: SF-295
[51] = tested on: PC-3
[52] = tested on: OVCAR-5
[53] = tested on: SN12C
[54] = tested on: NCI-H522
[55] = tested on: UO-31
[56] = tested on: CAKI-1
[57] = tested on: RPMI-8226
[58] = tested on: Hs-578T

Measured: GI50

CCc1c(C)c(C#N)c(=S)n(C2OC(CO)C(O)C(O)C2O)c1C (centres undefined)
inactive: [1] > 100 µM | [2] > 100 µM | [3] > 100 µM | [5] > 100 µM | [6] > 100 µM | [7] > 100 µM | [8] > 100 µM | [9] > 100 µM | [10] > 100 µM | [11] > 100 µM | [12] > 100 µM | [13] > 100 µM | [14] > 100 µM | [15] > 100 µM | [16] > 100 µM | [17] > 100 µM | [18] > 100 µM | [19] > 100 µM | [20] > 100 µM | [21] > 100 µM | [22] > 100 µM | [23] > 100 µM | [24] > 100 µM | [25] > 100 µM | [26] > 100 µM | [27] > 100 µM | [28] > 100 µM | [29] 65.2 µM | [30] > 100 µM | [31] > 100 µM | [32] > 100 µM | [33] > 100 µM | [34] > 100 µM | [35] > 100 µM | [36] > 100 µM | [37] > 100 µM | [38] > 100 µM | [39] > 100 µM | [40] > 100 µM | [41] > 100 µM | [42] > 100 µM | [43] > 100 µM | [44] > 100 µM | [45] > 100 µM | [46] > 100 µM | [47] > 100 µM | [48] > 100 µM | [49] > 100 µM | [50] > 100 µM | [51] > 100 µM | [52] > 100 µM | [53] > 100 µM | [54] > 100 µM | [55] > 100 µM
> 100 µM: [4]

C1=C(c2ccccc2)O[C@H](COCc2ccccc2)C(OCc2ccccc2)[C@@H]1OCc1ccccc1 (some centres undefined)
> 10 µM: [4]
inactive: [1] > 10 µM | [2] > 10 µM | [6] > 10 µM | [9] > 10 µM | [10] > 10 µM | [12] > 10 µM | [13] > 10 µM | [14] > 10 µM | [16] > 10 µM | [56] > 10 µM | [18] > 10 µM | [19] > 10 µM | [57] > 10 µM | [21] > 10 µM | [22] > 10 µM | [23] > 10 µM | [24] > 10 µM | [25] > 10 µM | [26] > 10 µM | [27] > 10 µM | [29] > 10 µM | [30] > 10 µM | [32] > 10 µM | [33] > 10 µM | [34] > 10 µM | [35] > 10 µM | [36] > 10 µM | [37] > 10 µM | [38] > 10 µM | [39] > 10 µM | [42] > 10 µM | [43] > 10 µM | [44] > 10 µM | [47] > 10 µM | [48] > 10 µM | [50] > 10 µM | [51] > 10 µM | [53] > 10 µM

CC1(C)[C@@H](Cn2ccc(=O)[nH]c2=O)CC[C@@]1(C)CO
inactive: [1] > 100 µM | [2] > 100 µM | [3] > 100 µM | [5] > 100 µM | [7] > 100 µM | [8] > 100 µM | [9] > 100 µM | [10] > 100 µM | [11] > 100 µM | [13] > 100 µM | [14] > 100 µM | [15] 81.5 µM | [17] > 100 µM | [56] > 100 µM | [18] 59.2 µM | [20] > 100 µM | [21] > 100 µM | [22] > 100 µM | [23] > 100 µM | [25] > 100 µM | [26] > 100 µM | [27] > 100 µM | [28] > 100 µM | [29] > 100 µM | [58] > 100 µM | [30] > 100 µM | [31] > 100 µM | [33] > 100 µM | [36] > 100 µM | [37] > 100 µM | [38] > 100 µM | [39] > 100 µM | [40] > 100 µM | [41] > 100 µM | [42] > 100 µM | [44] > 100 µM | [46] > 100 µM | [47] > 100 µM | [48] > 100 µM | [50] > 100 µM | [51] > 100 µM | [52] > 100 µM | [53] > 100 µM | [55] > 100 µM
> 100 µM: [4]
